The nature of data set [1]: Apparent permeability across apical to basolateral side in human Caco2 cells at 750 uM measured over 90 mins by HPLC-MS analysis. Type of data set: ADME, cell-based. As to conditions: Caco-2.
The nature of data set [2]: Efflux ratio of apparent permeability across basolateral to apical over apical to basolateral side in human Caco2 cells. The note with it: Caco-2. Type of data set: ADME, cell-based.
Data set [3] has as its target Plasma kallikrein (Homo sapiens, UniProt P03952). The data set can be described thus: Competitive inhibition of human plasma kallikrein using S2302 as substrate by UV-visible spectrophotometer.
The target in data set [4] is Plasminogen (Homo sapiens, UniProt P00747). The data set can be described thus: Competitive inhibition of human plasmin using chromozyme PL as substrate by UV-visible spectrophotometer.
Data set [5] deals with Coagulation factor XI (Homo sapiens, UniProt P03951). Put plainly: Competitive inhibition of human factor 11a using pefachrome PCa as substrate by UV-visible spectrophotometer.
The target of data set [6] is Coagulation factor X (Homo sapiens, UniProt P00742). The data set can be described thus: Competitive inhibition of human factor 10a using pefachrome F10a as substrate by UV-visible spectrophotometer.
Data set [7] can be described thus: Oral bioavailability in human at 10 mg. The data set is classed as ADME, organism-based. The note with it: in vivo.
The species entered for data set [8] is Homo sapiens. Put plainly: Selectivity ratio of Ki for human PKK to Ki for human factor 11a.
A short description of data set [9]: Apparent permeability across apical to basolateral side in human Caco2 cells at 10 umol/l measured at 45 to 120 mins by LC-MS/MS analysis. The data set is classed as ADME, cell-based. The note with it: Caco-2.
Data set [10] is filed under the species Homo sapiens. Put plainly: Selectivity ratio of Ki for recombinant human factor 9a to Ki for human factor 10a.
Data set [11] is described as follows: Oral bioavailability in human at 57 to 200 mg. Type of data set: ADME, organism-based. As to conditions: in vivo.
The nature of data set [12]: Apparent permeability across human Caco2 cells measured every 30 mins for 2 hrs. Type of data set: ADME, cell-based. The note with it: Caco-2.

Some results are limits rather than exact numbers.

For `CCOC(=O)CN[C@@H](C(=O)N1CC[C@H]1C(=O)NCc1ccc(/C(N)=N\O)cc1)C1CCCCC1` [XIMELAGATRAN], the Papp A→B at 1.5 h, 750 µM in [1] turned out to be 2.4 ×10⁻⁶ cm/s. On to `CCCCCCOC(=O)NC(=N)c1ccc(NCc2nc3cc(C(=O)N(CCC(=O)OCC)c4ccccn4)ccc3n2C)cc1` [DABIGATRAN ETEXILATE], for which the efflux ratio in data set [2] came to 13.8. Take `N=C(N)c1ccc(CC(=O)[C@H](Cc2cccc(CN)c2)NC(=O)[C@@H](CCCc2ccccc2)NS(=O)(=O)Cc2cccc(C(=O)O)c2)cc1`: the Ki was determined as 0.02 nM in data set [3], 2.2 nM in [4], 18 nM in data set [5] and 45 nM in data set [6]. In data set [7], `O=C(NC[C@H]1CN(c2ccc(N3CCOCC3=O)cc2)C(=O)O1)c1ccc(Cl)s1` [RIVAROXABAN] displayed a bioavailability of over 80%. For the compound `O=C(N[C@@H](Cc1ccccc1)C(=O)NCc1cc(=O)[nH]c2ccc(Cl)cc12)c1ccc2[nH]c(=O)cc(O)c2c1`, in data set [8], the Ratio Ki worked out at 10. In data set [9], the Papp A→B at 10 µM came to 0.28 ×10⁻⁶ cm/s. As for `N=C(N)c1cccc(-n2nc(C(F)(F)F)cc2C(=O)Nc2ccc(-n3cnc4ccccc43)cc2F)c1`, the Ratio Ki in data set [10] was 130. On to `N=C(N)c1ccc(CNC(=O)[C@@H]2CCN2C(=O)[C@H](NCC(=O)O)C2CCCCC2)cc1`, for which the bioavailability in data set [11] lay in the range of 3 to 7%. In addition, in data set [12], the apparent permeability (Papp) at 2 h was determined as 0.03 ×10⁻⁶ cm/s.
